Oligonucleotides are written 5' to 3', each unit as a sugar letter and its base; * is a phosphorothioate linkage, no mark a phosphodiester; rarer units and linkages stand in square brackets, end groups in braces. Plain capitals give the bases only. e = 2'-O-(2-methoxyethyl) (MOE); [5mC] = 5-methylcytosine; d = 2'-deoxy (DNA)
These substances were tested on Human STAT3 mRNA (assay: Human STAT3 mRNA dose response in T-24 cells, real-time PCR with PPS 2033 (Table 19)). Settings: 18.75 nM oligonucleotide, 16 hours, − decrease, + increase relative to untreated control.
Format: cell-based
Summary of the method: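 T-24 cells got oligonucleotide at 18.75, 37.5, 75 or 150 nM with LIPOFECTIN (3 ug/mL per 100 nM oligo) for 16 h. STAT3 mRNA was quantified by real-time RT-PCR with primer-probe set PPS 2033, normalized to RiboGreen total RNA, and expressed as change versus untreated cells.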

| Substance | Percent change of STAT3 expression using PPS 2033 [%] |
| --- | --- |
| 337332 (antisense eG*eA*eA*eG*e[5mC]*d[5mC]*d[5mC]*dT*dT*dG*d[5mC]*d[5mC]*dA*dG*d[5mC]*e[5mC]*eA*eT*eG*eT) [compound 337332] | −66 |
| 337348 (antisense eT*e[5mC]*e[5mC]*eG*eA*dA*dT*dG*d[5mC]*d[5mC]*dT*d[5mC]*d[5mC]*dT*d[5mC]*e[5mC]*eT*eT*eG*eG) [compound 337348] | −53 |
| 337333 (antisense eA*eA*eG*eG*eA*dG*dA*dA*dG*d[5mC]*d[5mC]*d[5mC]*dT*dT*dG*e[5mC]*e[5mC]*eA*eG*e[5mC]) [compound 337333] | −46 |

Same assay, conditions: 37.5 nM oligonucleotide, 16 hours, − decrease, + increase relative to untreated control

| Substance | Percent change of STAT3 expression using PPS 2033 [%] |
| --- | --- |
| 337332 (antisense eG*eA*eA*eG*e[5mC]*d[5mC]*d[5mC]*dT*dT*dG*d[5mC]*d[5mC]*dA*dG*d[5mC]*e[5mC]*eA*eT*eG*eT) [compound 337332] | −79 |
| 337348 (antisense eT*e[5mC]*e[5mC]*eG*eA*dA*dT*dG*d[5mC]*d[5mC]*dT*d[5mC]*d[5mC]*dT*d[5mC]*e[5mC]*eT*eT*eG*eG) [compound 337348] | −76 |
| 337333 (antisense eA*eA*eG*eG*eA*dG*dA*dA*dG*d[5mC]*d[5mC]*d[5mC]*dT*dT*dG*e[5mC]*e[5mC]*eA*eG*e[5mC]) [compound 337333] | −70 |

Same assay, conditions: 75 nM oligonucleotide, 16 hours, − decrease, + increase relative to untreated control

| Substance | Percent change of STAT3 expression using PPS 2033 [%] |
| --- | --- |
| 337332 (antisense eG*eA*eA*eG*e[5mC]*d[5mC]*d[5mC]*dT*dT*dG*d[5mC]*d[5mC]*dA*dG*d[5mC]*e[5mC]*eA*eT*eG*eT) [compound 337332] | −85 |
| 337348 (antisense eT*e[5mC]*e[5mC]*eG*eA*dA*dT*dG*d[5mC]*d[5mC]*dT*d[5mC]*d[5mC]*dT*d[5mC]*e[5mC]*eT*eT*eG*eG) [compound 337348] | −83 |
| 337333 (antisense eA*eA*eG*eG*eA*dG*dA*dA*dG*d[5mC]*d[5mC]*d[5mC]*dT*dT*dG*e[5mC]*e[5mC]*eA*eG*e[5mC]) [compound 337333] | −82 |

Same assay, conditions: 150 nM oligonucleotide, 16 hours, − decrease, + increase relative to untreated control

| Substance | Percent change of STAT3 expression using PPS 2033 [%] |
| --- | --- |
| 337332 (antisense eG*eA*eA*eG*e[5mC]*d[5mC]*d[5mC]*dT*dT*dG*d[5mC]*d[5mC]*dA*dG*d[5mC]*e[5mC]*eA*eT*eG*eT) [compound 337332] | −91 |
| 337348 (antisense eT*e[5mC]*e[5mC]*eG*eA*dA*dT*dG*d[5mC]*d[5mC]*dT*d[5mC]*d[5mC]*dT*d[5mC]*e[5mC]*eT*eT*eG*eG) [compound 337348] | −86 |
| 337333 (antisense eA*eA*eG*eG*eA*dG*dA*dA*dG*d[5mC]*d[5mC]*d[5mC]*dT*dT*dG*e[5mC]*e[5mC]*eA*eG*e[5mC]) [compound 337333] | −90 |

These substances were tested on Human STAT3 mRNA (assay: Human STAT3 mRNA dose response in T-24 cells, real-time PCR with PPS 199 (Table 18)). Settings: 18.75 nM oligonucleotide, 16 hours, − decrease, + increase relative to untreated control.
Format: cell-based
Summary of the method: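 Bladder carcinoma T-24 cells transfected with oligonucleotide at 18.75, 37.5, 75 or 150 nM plus 3 ug/mL LIPOFECTIN per 100 nM, 16 h. STAT3 mRNA quantified by real-time PCR (PPS 199), normalized with Ribogreen; change given relative to untreated cells.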

| Substance | Percent change of STAT3 expression using PPS 199 [%] |
| --- | --- |
| 337332 (antisense eG*eA*eA*eG*e[5mC]*d[5mC]*d[5mC]*dT*dT*dG*d[5mC]*d[5mC]*dA*dG*d[5mC]*e[5mC]*eA*eT*eG*eT) [compound 337332] | −63 |
| 337348 (antisense eT*e[5mC]*e[5mC]*eG*eA*dA*dT*dG*d[5mC]*d[5mC]*dT*d[5mC]*d[5mC]*dT*d[5mC]*e[5mC]*eT*eT*eG*eG) [compound 337348] | −61 |
| 337333 (antisense eA*eA*eG*eG*eA*dG*dA*dA*dG*d[5mC]*d[5mC]*d[5mC]*dT*dT*dG*e[5mC]*e[5mC]*eA*eG*e[5mC]) [compound 337333] | −48 |

Same assay, conditions: 37.5 nM oligonucleotide, 16 hours, − decrease, + increase relative to untreated control

| Substance | Percent change of STAT3 expression using PPS 199 [%] |
| --- | --- |
| 337332 (antisense eG*eA*eA*eG*e[5mC]*d[5mC]*d[5mC]*dT*dT*dG*d[5mC]*d[5mC]*dA*dG*d[5mC]*e[5mC]*eA*eT*eG*eT) [compound 337332] | −79 |
| 337348 (antisense eT*e[5mC]*e[5mC]*eG*eA*dA*dT*dG*d[5mC]*d[5mC]*dT*d[5mC]*d[5mC]*dT*d[5mC]*e[5mC]*eT*eT*eG*eG) [compound 337348] | −77 |
| 337333 (antisense eA*eA*eG*eG*eA*dG*dA*dA*dG*d[5mC]*d[5mC]*d[5mC]*dT*dT*dG*e[5mC]*e[5mC]*eA*eG*e[5mC]) [compound 337333] | −73 |

Same assay, conditions: 75 nM oligonucleotide, 16 hours, − decrease, + increase relative to untreated control

| Substance | Percent change of STAT3 expression using PPS 199 [%] |
| --- | --- |
| 337332 (antisense eG*eA*eA*eG*e[5mC]*d[5mC]*d[5mC]*dT*dT*dG*d[5mC]*d[5mC]*dA*dG*d[5mC]*e[5mC]*eA*eT*eG*eT) [compound 337332] | −87 |
| 337348 (antisense eT*e[5mC]*e[5mC]*eG*eA*dA*dT*dG*d[5mC]*d[5mC]*dT*d[5mC]*d[5mC]*dT*d[5mC]*e[5mC]*eT*eT*eG*eG) [compound 337348] | −82 |
| 337333 (antisense eA*eA*eG*eG*eA*dG*dA*dA*dG*d[5mC]*d[5mC]*d[5mC]*dT*dT*dG*e[5mC]*e[5mC]*eA*eG*e[5mC]) [compound 337333] | −82 |

Same assay, conditions: 150 nM oligonucleotide, 16 hours, − decrease, + increase relative to untreated control

| Substance | Percent change of STAT3 expression using PPS 199 [%] |
| --- | --- |
| 337332 (antisense eG*eA*eA*eG*e[5mC]*d[5mC]*d[5mC]*dT*dT*dG*d[5mC]*d[5mC]*dA*dG*d[5mC]*e[5mC]*eA*eT*eG*eT) [compound 337332] | −92 |
| 337348 (antisense eT*e[5mC]*e[5mC]*eG*eA*dA*dT*dG*d[5mC]*d[5mC]*dT*d[5mC]*d[5mC]*dT*d[5mC]*e[5mC]*eT*eT*eG*eG) [compound 337348] | −86 |
| 337333 (antisense eA*eA*eG*eG*eA*dG*dA*dA*dG*d[5mC]*d[5mC]*d[5mC]*dT*dT*dG*e[5mC]*e[5mC]*eA*eG*e[5mC]) [compound 337333] | −88 |

Reference: patent US20050074879A1, “Antisense oligonucleotide modulation of STAT3 expression” (priority 2000, published 2005)
